Assay: mn = molality of the nth substance listed, in mol/kg
Conditions: for surface tension liquid-gas: Ring tensiometer; for electrical conductivity: 100 kPa, Liquid, Alternating current cell with electrodes

CCCCCCCCCCCCCCCC[NH+](CCO)CC(C)O.[Cl-] (configuration not stated) + O
Conditions | electrical conductivity [S/m] | surface tension liquid-gas [mN/m]
293.15 K, m1 = 1.052e-05 | – | 59.82
293.15 K, m1 = 1.579e-05 | – | 56.69
293.15 K, m1 = 2.631e-05 | – | 52.01
293.15 K, m1 = 5.263e-05 | – | 45.56
293.15 K, m1 = 0.0001052 | – | 39.23
293.15 K, m1 = 0.0001263 | 0.000446 | –
293.15 K, m1 = 0.0001316 | 0.000471 | –
293.15 K, m1 = 0.0001368 | 0.000496 | –
293.15 K, m1 = 0.0001421 | 0.000522 | –
293.15 K, m1 = 0.0001473 | 0.000548 | –
293.15 K, m1 = 0.0001526 | 0.000573 | –
293.15 K, m1 = 0.0001579 | 0.000595 | 35.88
293.15 K, m1 = 0.000171 | 0.00061 | –
293.15 K, m1 = 0.0001842 | 0.000621 | –
293.15 K, m1 = 0.0001973 | 0.000633 | –
293.15 K, m1 = 0.0002105 | 0.000644 | 34.88
293.15 K, m1 = 0.0002236 | 0.000655 | –
293.15 K, m1 = 0.0002368 | 0.000667 | –
293.15 K, m1 = 0.00025 | 0.000678 | –
293.15 K, m1 = 0.0002631 | 0.000689 | 34.06
293.15 K, m1 = 0.0002763 | 0.000701 | –
293.15 K, m1 = 0.0002894 | 0.000712 | –
293.15 K, m1 = 0.0003026 | 0.000723 | –
293.15 K, m1 = 0.0003157 | 0.000737 | –
293.15 K, m1 = 0.0005262 | – | 32.43
293.15 K, m1 = 0.001053 | – | 31.43
293.15 K, m1 = 0.001579 | – | 31.07
298.15 K, m1 = 7.893e-06 | – | 56.32
298.15 K, m1 = 1.052e-05 | – | 54.11
298.15 K, m1 = 1.579e-05 | – | 50.72
298.15 K, m1 = 2.631e-05 | – | 46.33
298.15 K, m1 = 5.263e-05 | – | 40.82
298.15 K, m1 = 9.47e-05 | 0.000409 | –
298.15 K, m1 = 0.0001016 | 0.000433 | –
298.15 K, m1 = 0.0001052 | – | 35.11
298.15 K, m1 = 0.0001085 | 0.000458 | –
298.15 K, m1 = 0.0001154 | 0.000482 | –
298.15 K, m1 = 0.0001223 | 0.000507 | –
298.15 K, m1 = 0.0001293 | 0.000531 | –
298.15 K, m1 = 0.0001362 | 0.000556 | –
298.15 K, m1 = 0.0001431 | 0.000581 | –
298.15 K, m1 = 0.00015 | 0.000606 | 32.52
298.15 K, m1 = 0.0001618 | 0.000621 | –
298.15 K, m1 = 0.0001737 | 0.000637 | –
298.15 K, m1 = 0.0001855 | 0.000653 | –
298.15 K, m1 = 0.0001973 | 0.000669 | –
298.15 K, m1 = 0.0002092 | 0.000684 | –
298.15 K, m1 = 0.0002105 | – | 31.91
298.15 K, m1 = 0.000221 | 0.0007 | –
298.15 K, m1 = 0.0002329 | 0.000716 | –
298.15 K, m1 = 0.0002447 | 0.000732 | –
298.15 K, m1 = 0.0002565 | 0.000748 | –
298.15 K, m1 = 0.0002631 | – | 31.41
298.15 K, m1 = 0.0002684 | 0.000764 | –
298.15 K, m1 = 0.0002802 | 0.00078 | –
298.15 K, m1 = 0.0002921 | 0.000796 | –
298.15 K, m1 = 0.0003039 | 0.000811 | –
298.15 K, m1 = 0.0003157 | 0.000829 | –
298.15 K, m1 = 0.0005262 | – | 30.8
298.15 K, m1 = 0.001053 | – | 30.03
298.15 K, m1 = 0.001579 | – | 29.71
303.15 K, m1 = 6.578e-06 | – | 52.23
303.15 K, m1 = 7.893e-06 | – | 50.81
303.15 K, m1 = 1.052e-05 | – | 48.55
303.15 K, m1 = 1.579e-05 | – | 45.89
303.15 K, m1 = 2.631e-05 | – | 42.23
303.15 K, m1 = 5.263e-05 | – | 37.06
303.15 K, m1 = 9.47e-05 | 0.000467 | –
303.15 K, m1 = 9.9e-05 | 0.000486 | –
303.15 K, m1 = 0.0001033 | 0.000505 | –
303.15 K, m1 = 0.0001052 | – | 32.07
303.15 K, m1 = 0.0001075 | 0.000524 | –
303.15 K, m1 = 0.0001118 | 0.000544 | –
303.15 K, m1 = 0.0001161 | 0.000563 | –
303.15 K, m1 = 0.0001204 | 0.000582 | –
303.15 K, m1 = 0.0001247 | 0.000601 | –
303.15 K, m1 = 0.0001289 | 0.000621 | –
303.15 K, m1 = 0.0001315 | – | 31.01
303.15 K, m1 = 0.0001423 | 0.000643 | –
303.15 K, m1 = 0.0001556 | 0.000666 | –
303.15 K, m1 = 0.0001579 | – | 30.51
303.15 K, m1 = 0.000169 | 0.000689 | –
303.15 K, m1 = 0.0001823 | 0.000712 | –
303.15 K, m1 = 0.0001956 | 0.000735 | –
303.15 K, m1 = 0.000209 | 0.000757 | –
303.15 K, m1 = 0.0002105 | – | 30.45
303.15 K, m1 = 0.0002223 | 0.00078 | –
303.15 K, m1 = 0.0002357 | 0.000803 | –
303.15 K, m1 = 0.000249 | 0.000826 | –
303.15 K, m1 = 0.0002624 | 0.000849 | –
303.15 K, m1 = 0.0002631 | – | 30.43
303.15 K, m1 = 0.0002757 | 0.000872 | –
303.15 K, m1 = 0.0002891 | 0.000895 | –
303.15 K, m1 = 0.0003024 | 0.000918 | –
303.15 K, m1 = 0.0003157 | 0.000944 | –
303.15 K, m1 = 0.0005262 | – | 29.89
303.15 K, m1 = 0.001053 | – | 29.16
303.15 K, m1 = 0.001579 | – | 28.81
308.15 K, m1 = 4.604e-06 | – | 52.01
308.15 K, m1 = 7.893e-06 | – | 48.13
308.15 K, m1 = 1.052e-05 | – | 46
308.15 K, m1 = 1.579e-05 | – | 43.23
308.15 K, m1 = 2.631e-05 | – | 39.78
308.15 K, m1 = 5.263e-05 | – | 35.06
308.15 K, m1 = 7.37e-05 | 0.000445 | –
308.15 K, m1 = 8.04e-05 | 0.000472 | –
308.15 K, m1 = 8.72e-05 | 0.0005 | –
308.15 K, m1 = 9.4e-05 | 0.000528 | –
308.15 K, m1 = 0.0001007 | 0.000556 | –
308.15 K, m1 = 0.0001075 | 0.000583 | –
308.15 K, m1 = 0.0001143 | 0.000611 | –
308.15 K, m1 = 0.000121 | 0.00064 | 29.71
308.15 K, m1 = 0.00013 | 0.000659 | –
308.15 K, m1 = 0.0001389 | 0.000679 | –
308.15 K, m1 = 0.0001479 | 0.000699 | –
308.15 K, m1 = 0.0001568 | 0.000719 | –
308.15 K, m1 = 0.0001579 | – | 29.44
308.15 K, m1 = 0.0001658 | 0.000739 | –
308.15 K, m1 = 0.0001747 | 0.000759 | –
308.15 K, m1 = 0.0001837 | 0.000778 | –
308.15 K, m1 = 0.0001926 | 0.000798 | –
308.15 K, m1 = 0.0002015 | 0.000818 | –
308.15 K, m1 = 0.0002105 | 0.000839 | 29.16
308.15 K, m1 = 0.0002194 | 0.000858 | –
308.15 K, m1 = 0.0002284 | 0.000878 | –
308.15 K, m1 = 0.0002373 | 0.000898 | –
308.15 K, m1 = 0.0002463 | 0.000917 | –
308.15 K, m1 = 0.0002552 | 0.000937 | –
308.15 K, m1 = 0.0002631 | – | 29.02
308.15 K, m1 = 0.0002642 | 0.000957 | –
308.15 K, m1 = 0.0002731 | 0.000977 | –
308.15 K, m1 = 0.0002821 | 0.000997 | –
308.15 K, m1 = 0.000291 | 0.00102 | –
308.15 K, m1 = 0.0005262 | – | 28.71
308.15 K, m1 = 0.001053 | – | 28.26
308.15 K, m1 = 0.001579 | – | 28.07
